Structures can show the parent of a compound that is named as a salt.

The target in this assay is T1, human thrombin (Homo sapiens, UniProt P00734).
T1 construct: human thrombin (Sigma, specific activity 3230 UNIH/mg); purchased Sigma
Briefly: Inhibition of human thrombin activity on human fibrinogen (fibrin formation, 405 nm). In kind it is biochemical. As to conditions: thrombin 0.7 nM, purified human fibrinogen, pre-incubation 20° C. 10 minutes, pH 7.4; read-out: IC50 (concentration of the compounds that inhibits 50% of the enzymatic activity of the thrombin). How it is done:
For in vitro evaluation of the inhibitory activity of the products of the invention on human thrombin (Sigma, specific activity 3230 UNIH/mg), purified human fibrinogen ([…], Stago) (Fg) was added to a given amount of thrombin (0.7 nM) that had previously been incubated with or without the inhibitor to be tested (20° C., 10 minutes).
Inhibitors, enzymes and substrates are diluted in the same buffer ([…] phosphate buffer, pH 7.4, containing 0.12 M sodium chloride and 0.05% bovine serum albumin) and then distributed on a polystyrene microtitre plate in a volume of 50 μl.
The fibrin formed by the thrombin is measured using a spectrophotometer at 405 nm after from 10 to 15 minutes' reaction at 20° C.
The table below gives in nM the concentration of the compounds that inhibits 50% of the enzymatic activity (IC50) of the thrombin compared with the control without product.
As for `O=C(COc1ccccc1CNC(=O)C1CCc2cnc(NCC(F)(F)c3cccc[n+]3[O-])c(=O)n21)NCCc1ccccn1` (stereo not shown) [Example 15, 3-{[2,2-Difluoro-2-(1-oxido-2-pyridyl)ethyl]amino}4-oxo-N-[2-(2-oxo-2-{[2-(2-pyridyl)ethyl]amino}ethoxy)benzyl]-4,6,7,8-tetrahydropyrrolo[1,2-a]pyrazine-6-carboxamide hydrochloride], the IC50 is 1.4 nM.

Consider `O=C(NCc1c(F)ccc(F)c1F)[C@@H]1CCc2cnc(NCC(F)(F)c3cccc[n+]3[O-])c(=O)n21` [Example 21, (6S)-3-{[2,2-Difluoro-2-(1-oxido-2-pyridyl)ethyl]amino}-N-(2,3,6-trifluorobenzyl)-4-oxo-4,6,7,8-tetrahydropyrrolo[1,2-a]pyrazine-6-carboxamide], for which the IC50 was determined as 11 nM. The same measure for `O=C(NCc1cccs1)[C@@H]1CCc2cnc(NCC(F)(F)c3cccc[n+]3[O-])c(=O)n21` [Example 24, (6S)-3-{[2,2-Difluoro-2-(1-oxido-2-pyridyl)ethyl]amino}-N-(2-thienylmethyl)-4-oxo-4,6,7,8-tetrahydropyrrolo[1,2-a]pyrazine-6-carboxamide hydrochloride]: 60 nM. As to `O=C(NCc1ccccc1F)[C@@H]1CCc2cnc(NCC(F)(F)c3ccc4ccccc4[n+]3[O-])c(=O)n21` [Example 31, (6S)-3-{[2,2-Difluoro-2-(1-oxido 2-quinolinyl)ethyl]amino}-N-(2-fluorobenzyl)4-oxo-4,6,7,8-tetrahydropyrrolo[1,2-a]pyrazine 6-carboxamide], the IC50 was determined as 8.4 nM. The same measure for `O=C(NCc1ccccc1Cl)C1CCc2cnc(NCC(F)(F)c3cccc[n+]3[O-])c(=O)n21` (racemic) [Example 8, 3-{[2,2-Difluoro-2-(1-oxido-2-pyridyl)ethyl]amino}-N-(2-chlorobenzyl)-4-oxo-4,6,7,8-tetrahydropyrrolo[1,2-a]pyrazine-6-carboxamide]: 38 nM.

Take `O=C(NCc1ccccc1F)[C@@H]1CCc2cnc(NCC(F)(F)c3cccc[n+]3[O-])c(=O)n21` [Example 3, (6S)-3-{[2,2-Difluoro-2-(1-oxido-2-pyridyl)ethyl]amino}-N-(2-fluorobenzyl)-4-oxo-4,6,7,8-tetrahydropyrrolo[1,2-a]pyrazine-6-carboxamide]: the IC50 came out at 16 nM. With `O=C(NCc1ccccc1F)C1CCc2cnc(NCC(F)(F)c3cccc[n+]3[O-])c(=O)n21` (racemic) [Example 1, 3-{[2,2-Difluoro-2-(1-oxido-2-pyridyl)ethyl]amino}-N-(2-fluorobenzyl)4-oxo-4,6,7,8-tetrahydropyrrolo[1,2-a]pyrazine-6-carboxamide] the figure was 28 nM.

(Values after US7498330B2, “4-oxo-4,6,7,8-tetrahydro-pyrrolo[1,2-a]pyrazine-6-carboxamide compounds” (Les Laboratories Servier, priority 2004, dated 2009).)
